A short description of this data set: Purity and stability test: samples sealed at 25° C. for 30 days, purity by HPLC. Particulars: for Purity of initial sample: before storage, HPLC purity (baseline of the stability test); for Purity of sample after stored at 25° C. for 30 days: sealed, HPLC purity. Format: physicochemical. The text has this: High performance liquid chromatography (HPLC) is a common method for determining the purity of a compound, wherein a liquid is used as the mobile phase and a high-pressure transfusion system is used for pumping the mobile phase, such as single solvents with different polarities, a mixture of solvents at different proportions, or buffers, into a column packed with a stationary phase. Each component is separated in the column, and then enters into a detector for detection, thereby analyzing a sample. In the present invention, HPLC is used for determining the purity of the compound of formula I and studying the stability of a sample. The HPLC method is as follows:
Analysis Column: YMC-ODS 250×4.6 mm, 5 μm;
Mobile phase: acetonitrile:phosphate buffer (pH 3.0)=45:70;
Column temperature: 35° C.;
Diluent: aqueous phosphate buffer;
Detection wavelength: 210 nm;
In this Example, the purity and stability of the samples obtained in Comparative Examples and Examples were compared. The method used is as follows:
Crystals A-C of the compound of formula I prepared in Examples 2, 11 and 15, the crystal of B82 type obtained in Comparative Example 1 and the amorphous solid obtained in Example 1 were taken respectively and sealed at 25° C. for 30 days. And then the content of impurities in the sample was analyzed. Results of comparing the stability of crystals A-C of the compound of formula I according to the present invention, the crystal of B82 type and the amorphous solid are shown in the following table: […]

Each structure is given as a SMILES string. Numbered stars: 1 amine (or outer) side, 2 acyl side, 3 side chain; on linkers, the order of the positions; unused ones are H or OH. Bridge positions count the residues as written; N and C are the ends. Square brackets hold non-standard residues; d marks the D form. Peptide text beside a SMILES is read from it. * marks the point of attachment. hTyr(3S-OH,4S-OH,3'-OSO3H) = N[C@H](C(=O)O)[C@H](O)[C@@H](O)c1ccc(O)c(OS(=O)(=O)O)c1; Orn(4R-OH,5R-OH) = O=C([C@H](C[C@@H](O)[C@@H](O)N[*:3])N[*:1])[*:2]; Pro(3S-OH,4S-Me) = C[C@H]1CN[C@H](C(=O)O)[C@H]1O; X1 = CCCCCOc1ccc(-c2cc(-c3ccc(C(=O)*)cc3)no2)cc1; Gln(3R-OH) = NC(=O)C[C@@H](O)[C@H](N)C(=O)O; Hyp = O=C(O)[C@@H]1C[C@@H](O)CN1

With `CCCCCOc1ccc(-c2cc(-c3ccc(C(=O)N[C@H]4C[C@@H](O)[C@@H](O)NC(=O)[C@@H]5[C@@H](O)[C@@H](C)CN5C(=O)[C@H]([C@H](O)CC(N)=O)NC(=O)[C@H]([C@H](O)[C@@H](O)c5ccc(O)c(OS(=O)(=O)[O-])c5)NC(=O)[C@@H]5C[C@@H](O)CN5C(=O)[C@H]([C@@H](C)O)NC4=O)cc3)no2)cc1.[Na+]` [Crystal A, Sodium 5-[(1S,2S)-2-[(3S,6S,9S,11R,15S,18S,20R,21R,24S,25S,26S)-3-[(R)-2-carbamoyl-1-hydroxyethyl]-11,20,21,25-tetrahydroxy-15-[(R)-1-hydroxyethyl]-26-methyl-2,5,8,14,17,23-hexaoxo-18-[4-[5-(4-pentoxyphenyl)isoxazol-3-yl]benzoylamino]-1,4,7,13,16,22-hexaazatricyclo[22.3.0.0^9,13]heptacosan-6-yl]-1,2-dihydroxyethyl]-2-hydroxy phenyl sulfate.] (X1-[Orn(4R-OH,5R-OH)]T[Hyp][hTyr(3S-OH,4S-OH,3'-OSO3H)][Gln(3R-OH)][Pro(3S-OH,4S-Me)]; lactam 1-C), the “Purity of initial sample” value turned out to be 99.68% and the “Purity of sample after stored at 25° C. for 30 days” value (from here on “Purity of sample after stored”) was 99.65%. For the same molecule, for the setting “result in words”, the “stability compared with the B82-type crystal and the amorphous solid” value is reported as “significantly superior than that of the crystal of B82 type”.

For the molecule `CCCCCOc1ccc(-c2cc(-c3ccc(C(=O)N[C@H]4C[C@@H](O)[C@@H](O)NC(=O)[C@@H]5[C@@H](O)[C@@H](C)CN5C(=O)[C@H]([C@H](O)CC(N)=O)NC(=O)[C@H]([C@H](O)[C@@H](O)c5ccc(O)c(OS(=O)(=O)[O-])c5)NC(=O)[C@@H]5C[C@@H](O)CN5C(=O)[C@H]([C@@H](C)O)NC4=O)cc3)no2)cc1.[Na+]` [Crystal B, Sodium 5-[(1S,2S)-2-[(3S,6S,9S,11R,15S,18S,20R,21R,24S,25S,26S)-3-[(R)-2-carbamoyl-1-hydroxyethyl]-11,20,21,25-tetrahydroxy-15-[(R)-1-hydroxyethyl]-26-methyl-2,5,8,14,17,23-hexaoxo-18-[4-[5-(4-pentoxyphenyl)isoxazol-3-yl]benzoylamino]-1,4,7,13,16,22-hexaazatricyclo[22.3.0.0^9,13]heptacosan-6-yl]-1,2-dihydroxyethyl]-2-hydroxy phenyl sulfate.] (X1-[Orn(4R-OH,5R-OH)]T[Hyp][hTyr(3S-OH,4S-OH,3'-OSO3H)][Gln(3R-OH)][Pro(3S-OH,4S-Me)]; lactam 1-C), the “Purity of initial sample” value is recorded as 99.55% and the “Purity of sample after stored” value was 99.50%.

In the case of `CCCCCOc1ccc(-c2cc(-c3ccc(C(=O)N[C@H]4C[C@@H](O)[C@@H](O)NC(=O)[C@@H]5[C@@H](O)[C@@H](C)CN5C(=O)[C@H]([C@H](O)CC(N)=O)NC(=O)[C@H]([C@H](O)[C@@H](O)c5ccc(O)c(OS(=O)(=O)[O-])c5)NC(=O)[C@@H]5C[C@@H](O)CN5C(=O)[C@H]([C@@H](C)O)NC4=O)cc3)no2)cc1.[Na+]` [Crystal C, Sodium 5-[(1S,2S)-2-[(3S,6S,9S,11R,15S,18S,20R,21R,24S,25S,26S)-3-[(R)-2-carbamoyl-1-hydroxyethyl]-11,20,21,25-tetrahydroxy-15-[(R)-1-hydroxyethyl]-26-methyl-2,5,8,14,17,23-hexaoxo-18-[4-[5-(4-pentoxyphenyl)isoxazol-3-yl]benzoylamino]-1,4,7,13,16,22-hexaazatricyclo[22.3.0.0^9,13]heptacosan-6-yl]-1,2-dihydroxyethyl]-2-hydroxy phenyl sulfate.] (X1-[Orn(4R-OH,5R-OH)]T[Hyp][hTyr(3S-OH,4S-OH,3'-OSO3H)][Gln(3R-OH)][Pro(3S-OH,4S-Me)]; lactam 1-C), the “Purity of initial sample” value is reported as 99.64% and the “Purity of sample after stored” value stood at 99.43%.

Regarding `CCCCCOc1ccc(-c2cc(-c3ccc(C(=O)N[C@H]4C[C@@H](O)[C@@H](O)NC(=O)[C@@H]5[C@@H](O)[C@@H](C)CN5C(=O)[C@H]([C@H](O)CC(N)=O)NC(=O)[C@H]([C@H](O)[C@@H](O)c5ccc(O)c(OS(=O)(=O)[O-])c5)NC(=O)[C@@H]5C[C@@H](O)CN5C(=O)[C@H]([C@@H](C)O)NC4=O)cc3)no2)cc1.[Na+]` [Amorphous solid, Sodium 5-[(1S,2S)-2-[(3S,6S,9S,11R,15S,18S,20R,21R,24S,25S,26S)-3-[(R)-2-carbamoyl-1-hydroxyethyl]-11,20,21,25-tetrahydroxy-15-[(R)-1-hydroxyethyl]-26-methyl-2,5,8,14,17,23-hexaoxo-18-[4-[5-(4-pentoxyphenyl)isoxazol-3-yl]benzoylamino]-1,4,7,13,16,22-hexaazatricyclo[22.3.0.0^9,13]heptacosan-6-yl]-1,2-dihydroxyethyl]-2-hydroxy phenyl sulfate., reference compound] (X1-[Orn(4R-OH,5R-OH)]T[Hyp][hTyr(3S-OH,4S-OH,3'-OSO3H)][Gln(3R-OH)][Pro(3S-OH,4S-Me)]; lactam 1-C), the “Purity of initial sample” value is 99.38% and the “Purity of sample after stored” value is given as 89.27%.

For `CCCCCOc1ccc(-c2cc(-c3ccc(C(=O)N[C@H]4C[C@@H](O)[C@@H](O)NC(=O)[C@@H]5[C@@H](O)[C@@H](C)CN5C(=O)[C@H]([C@H](O)CC(N)=O)NC(=O)[C@H]([C@H](O)[C@@H](O)c5ccc(O)c(OS(=O)(=O)[O-])c5)NC(=O)[C@@H]5C[C@@H](O)CN5C(=O)[C@H]([C@@H](C)O)NC4=O)cc3)no2)cc1.[Na+]` [B82-type Crystal, Sodium 5-[(1S,2S)-2-[(3S,6S,9S,11R,15S,18S,20R,21R,24S,25S,26S)-3-[(R)-2-carbamoyl-1-hydroxyethyl]-11,20,21,25-tetrahydroxy-15-[(R)-1-hydroxyethyl]-26-methyl-2,5,8,14,17,23-hexaoxo-18-[4-[5-(4-pentoxyphenyl)isoxazol-3-yl]benzoylamino]-1,4,7,13,16,22-hexaazatricyclo[22.3.0.0^9,13]heptacosan-6-yl]-1,2-dihydroxyethyl]-2-hydroxy phenyl sulfate., reference compound] (X1-[Orn(4R-OH,5R-OH)]T[Hyp][hTyr(3S-OH,4S-OH,3'-OSO3H)][Gln(3R-OH)][Pro(3S-OH,4S-Me)]; lactam 1-C), the “Purity of initial sample” value was 99.50% and the “Purity of sample after stored” value is recorded as 96.98%.
